Data from the supplement of paper PMC10307832.

Tests used:
Experiment in all cases: relative viability (nuclei count vs DMSO), 5 days (fraction); higher = more cells survive
IDH-C35 + Vorinostat = compound: Cc1ccccc1C(C(=O)NC1CCCCC1)N(C(=O)Cn1ccnc1C)c1cccc(F)c1 [IDH-C35] + O=C(CCCCCCC(=O)Nc1ccccc1)NO [Vorinostat] (partner 1 µM)
How it was run: (§1)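 Medians of duplicate plates are given as relative viability. That measure is the nuclei count in treated wells divided by the count in vehicle wells. Counts were taken on 4× images of lung cancer cell lines in 1536-well plates, 5 days after pin-tool dosing the day after seeding with one drug alone or a fixed anchor-drug dose plus five library-drug doses (not always all listed) in √10 steps.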

[1] = compound: CC1=C(C(=NN1)C)CC2=C(C3=C(S2)N(C(=O)N(C3=O)C)CC(C)C)C(=O)N4C[C@@H](CO4)O + Nc1ncn([C@H]2C[C@H](O)[C@@H](CO)O2)c(=O)n1 [Decitabine] (partner 2 µM)
How it was run: as §1

IDH-C35 + Linsitinib = compound: Cc1ccccc1C(C(=O)NC1CCCCC1)N(C(=O)Cn1ccnc1C)c1cccc(F)c1 [IDH-C35] + C[C@]1(O)C[C@@H](c2nc(-c3ccc4ccc(-c5ccccc5)nc4c3)c3c(N)nccn32)C1 [Linsitinib] (partner 1 µM)
How it was run: as §1

IDH-C35 + Olaparib = compound: Cc1ccccc1C(C(=O)NC1CCCCC1)N(C(=O)Cn1ccnc1C)c1cccc(F)c1 [IDH-C35] + O=C(c1cc(Cc2n[nH]c(=O)c3ccccc23)ccc1F)N1CCN(C(=O)C2CC2)CC1 [Olaparib] (partner 8 µM)
How it was run: as §1

Cell Line: UMC-11
- relative viability (IDH-C35 + Vorinostat; first compound 0.08 µM): 0.373
- relative viability (IDH-C35 + Vorinostat; first compound 0.253 µM): 0.468
- relative viability (IDH-C35 + Vorinostat; first compound 0.8 µM): 0.435
- relative viability (IDH-C35 + Vorinostat; first compound 2.53 µM): 0.434
- relative viability (IDH-C35 + Vorinostat; first compound 8 µM): 0.46
- relative viability ([1]; first compound 0.0025 µM): 0.54
- relative viability ([1]; first compound 0.007906 µM): 0.506
- relative viability ([1]; first compound 0.025 µM): 0.38
- relative viability ([1]; first compound 0.07906 µM): 0.483
- relative viability ([1]; first compound 0.25 µM): 0.491
- relative viability (IDH-C35 + Linsitinib; first compound 0.08 µM): 0.942
- relative viability (IDH-C35 + Linsitinib; first compound 0.253 µM): 1.06
- relative viability (IDH-C35 + Linsitinib; first compound 0.8 µM): 1.04
- relative viability (IDH-C35 + Linsitinib; first compound 2.53 µM): 1.04
- relative viability (IDH-C35 + Linsitinib; first compound 8 µM): 0.971
- relative viability (IDH-C35 + Olaparib; first compound 0.08 µM): 0.383
- relative viability (IDH-C35 + Olaparib; first compound 0.253 µM): 0.366
- relative viability (IDH-C35 + Olaparib; first compound 0.8 µM): 0.402
- relative viability (IDH-C35 + Olaparib; first compound 2.53 µM): 0.382
- relative viability (IDH-C35 + Olaparib; first compound 8 µM): 0.445
